# Assay results from paper PMC9238271, “The quorum sensing peptide EntF* promotes colorectal cancer metastasis in mice: a new factor in the host-microbiome interaction” (BMC Biology, 2022).
# Entries after “also recorded” stand apart in the source; their conditions may differ.
# How the values were obtained:
# [1] = test system: luciferase-transfected HCT-8/E11 cells injected into the cecal wall; experiment: Orthotopic mouse model of colorectal cancer: weekly bioluminescent imaging; type: in vivo, female athymic nude mice (Swiss nu/nu)
# Description: All in vivo experiments were performed according to the Ethical Committee principles of laboratory animal welfare, approved by our institute (Ghent University, Faculty of Medicine and Health Sciences, approval number ECD 17-90). Mice were maintained in a sterile environment under controlled conditions (light–dark cycle with light from 7:00 h to 17:00 h, temperature 21–25 °C and humidity 45–65%). Before the experiment, mice were allowed to acclimate to the abovementioned conditions for a minimum of 7 days.
# Six-week-old female athymic nude mice (Swiss nu/nu) were anesthetized, and a minimally invasive midline laparotomy was performed to localize the cecum. The cecum was then gently pulled out, and luciferase-transfected HCT-8/E11 cells (1 × 10^6 cells) in 20 μL serum-free DMEM medium with Matrigel (1:1) were injected into the cecal wall. Before implantation, cells were treated with EntF* (10^2 nM), Phr0662 (10^2 nM), vehicle (PBS), or TGFα positive control (0.1 μg mL^−1) solutions for 5 days. The cecum was then carefully placed back into the abdominal cavity and the surgical incision was closed with two layers of sutures with PDS 6-0. […] Once a week, mice were examined for tumor growth and metastases using bioluminescent imaging with the IVIS Lumina II (Perkin Elmer, Belgium) after i.p. injection with 200 μL luciferin (150 mg kg^−1). After 6 weeks, mice were euthanized using cervical dislocation, and the liver, diaphragm, lungs, cecum, duodenum, and peritoneum were macroscopically examined for the presence of tumor nodules. Liver and lung tissues were then fixed in formalin for 24 h and stored in 70% ethanol for maximum 3 days before embedding in paraffin. Next, a hematoxylin and eosin (H&E) staining was performed on 8 μm sections, and 3 sections per mouse were visualized using microscopy. Slides from tumor-bearing mice were analyzed by two blinded, independent investigators using the scoring system described in Additional file 5: Table S3. In case of differences, slides were scored by a third blinded, independent investigator for consensus.
# The Kolmogorov-Smirnov test was used to assess if data obtained were normally distributed. For sample size n < 10, non-parametric tests (Mann-Whitney U test) were performed directly. Slope comparison was based on linear regression analysis. Bootstrapped medians and Hedges G-values were used to calculate the effect size when sample sizes were different between the groups.
# [2] = test system: E-cadherin expression in HCT-8 cells; experiment: Western blot of E-cadherin expression, HCT-8 cells (EntF*, alanine and D-amino acid analogs); type: cell-based
# Description: (§1) HCT-8, HT-29, and HT-116 cells were grown in DMEM medium supplied with 10% fetal bovine serum (FBS) and 1% penicillin-streptomycin. Caco-2 cells were grown in DMEM medium supplied with 10% FBS, 1% non-essential amino acid NEAA), and 1% penicillin-streptomycin. Cells were cultured at 37 °C and 5% CO2. As cells reached confluency, they were detached using 0.25% Trypsin-EDTA.
# (§2) For Western blot analyses, HCT-8 (n = 15), HCT-116 (n = 12), Caco-2 (n = 6), and HT-29 (n = 12) cells were seeded in 6-well plates at a density of 1 × 10^6 cells/well. Twenty-four hours after seeding, all cell lines were treated with 1 μM EntF* or a placebo solution. HCT-8 cells were also tested for responsiveness to 1 μM EntF* synthetic alanine-derived analogs. For antagonist activity analysis, HCT-8 cells were treated with 1 μM Nef-M1 or 1 μM EntF*A1 alone or in combination with 500 nM EntF*. After 24 h, cells were detached from the surface and lysed in RIPA buffer (Thermo Scientific). Protein concentration was determined using the modified Lowry protein assay kit (Thermo Scientific), according to the manufacturer’s instructions. Protein samples were diluted to the same concentration (4 μg/μL) with water and diluted again 1:1 using 2x Laemmli buffer. After that, samples were boiled for 5 min at 95 °C to denature proteins and centrifuged for 5 min at 16,000g; supernatants were used for Western blot analyses. Equal amounts of total protein (20 μg/lane) were separated by SDS-PAGE on an Any kD^TM gel (Bio-Rad ) and then transferred to a PVDF membrane. Before incubation with antibodies, non-specific binding sites on the membranes were blocked using 5% skimmed milk solution (1 h). TBS buffer with 0.05% Tween 20 was used for all washing steps. Membranes were incubated overnight at 4 °C with an anti-E-cadherin primary antibody (1/1000 dilution). An HRP-conjugated anti-rabbit antibody (1/2000 dilution, 1 h incubation) was used for chemiluminescent detection. Membranes were incubated with the detection substrate for 5 min and signal detection was performed using the ChemiDoc EZ imager and Image Lab software (Bio-Rad). Signal intensity was normalized against the total protein content in each lanes.
# A quantitative approach was used to evaluate the importance of each amino acid, where the Fisher’s LSD p-values of (1) multiple comparisons between EntF* and the alanine (ALA) scan and (2) multiple comparisons between different peptides of the ALA scan are combined. Subsequently, based on the combined P-score, the amino acids were classified in 5 classes using a hierarchical cluster analysis and confirmed using the Jenks natural breaks algorithm with K = 5. CombinedPscore=1-PPBSvsALAscan*PEntF*vsALAscan
# [3] = test system: E-cadherin expression in Caco-2 cells; experiment: Western blot of E-cadherin expression, Caco-2 cells; type: cell-based
# Description: as §1
# as §2, with “Signal intensity was normalized against the total protein content in each lanes.” left out
compound,measurement,setting,value
"CC(C)C[C@@H]1NC(=O)[C@H](CO)NC(=O)[C@H](Cc2ccccc2)NC(=O)[C@H](C(C)C)NC(=O)[C@@H](NC(=O)[C@H](CCC(=O)O)NC(=O)[C@@H](NC(=O)[C@H](CC(C)C)NC(=O)[C@H](CC(N)=O)NC(=O)[C@@H](N)CO)C(C)C)CSSC[C@@H](C(=O)N[C@@H](CC(N)=O)C(=O)O)NC(=O)[C@H](CCCCN)NC(=O)[C@H](CCCCN)NC(=O)[C@H](Cc2ccccc2)NC1=O (single isomer, unassigned) [EntF*]","effect size class by Hedges' G, bioluminescence","[1]; after a 6-week treatment, compared to the placebo group",medium to large effect
same,effect size: increase in bioluminescence compared to the placebo,"[1]; after a 6-week treatment, bootstrapped median",79%
same,luciferase activity / tumor growth compared to the vehicle,"[1]; daily i.p. over 6 weeks, linear regression slope comparison",statistically significant increase; also recorded: significant increase in tumor growth
same,effect on E-cadherin levels in HCT-8 cells,"[2]; 24 h, n = 15",significant decrease
same,Relative E-cadherin decrease,"[2]; Ala-scan sheet, Blot 19 (single blot), chemiluminescence band, placebo lane = 100",54.8007
same,E-cadherin expression relative to H2O control (= 100),"[2]; Ala-scan sheet, Blot 20 (single blot), chemiluminescence band, placebo lane = 100",67.4208
same,Relative E-cadherin decrease,"[2]; Ala-scan sheet, Blot 21 (single blot), chemiluminescence band, placebo lane = 100",65.0177
same,E-cadherin expression relative to H2O control (= 100),"[2]; Ala-scan sheet, Blot 24 (single blot), chemiluminescence band, Norm. Vol. relative to placebo lane = 100",28.5
same,E-cadherin expression relative to H2O control (= 100),"[2]; Ala-scan sheet, Blot 25 (single blot), chemiluminescence band, Norm. Vol. relative to placebo lane = 100",21.0
same,E-cadherin expression relative to H2O control (= 100),"[2]; Ala-scan sheet, Blot 26 (single blot), chemiluminescence band, Norm. Vol. relative to placebo lane = 100",35.9
same,E-cadherin expression relative to H2O control (= 100),"[2]; Ala-scan sheet, Blot 27 (single blot), chemiluminescence band, Norm. Vol. relative to placebo lane = 100",217.9
same,E-cadherin expression relative to H2O control (= 100),"[2]; Ala-scan, Blot 11 (single blot replicate), normalized band volume relative to Placebo = 100.0",93.8
same,E-cadherin expression relative to H2O control (= 100),"[2]; Ala-scan, Blot 12 (single blot replicate), normalized band volume relative to Placebo = 100.0",85.9
same,E-cadherin expression relative to H2O control (= 100),"[2]; Ala-scan, Blot 13 (single blot replicate), normalized band volume relative to Placebo = 100.0",94.6
same,E-cadherin expression relative to H2O control (= 100),"[2]; Ala-scan, Blot 14 (single blot replicate), normalized band volume relative to Placebo = 100.0",84.9
same,E-cadherin expression relative to H2O control (= 100),"[2]; Ala-scan, Blot 18 (single blot replicate), normalized band volume relative to Placebo = 100.0",74.8
same,E-cadherin expression relative to H2O control (= 100),"[2]; D-scan, Blot 1 (replicate), Norm. Vol. relative to H2O lane = 100.0, chemiluminescence",92.9
same,E-cadherin expression relative to H2O control (= 100),"[2]; D-scan, Blot 2 (replicate), Norm. Vol. relative to H2O lane = 100.0, chemiluminescence",90.1
same,E-cadherin expression relative to H2O control (= 100),"[2]; D-scan, Blot 3 (replicate), Norm. Vol. relative to H2O lane = 100.0, chemiluminescence",85.4
same,E-cadherin expression relative to H2O control (= 100),"[2]; D-scan, Blot 4 (replicate), Norm. Vol. relative to H2O lane = 100.0, chemiluminescence",88.3
same,E-cadherin expression relative to H2O control (= 100),"[2]; D-scan, Blot 6 (replicate), Norm. Vol. relative to H2O lane = 100.0, chemiluminescence",95.4
same,E-cadherin expression relative to H2O control (= 100),"[2]; D-scan, Blot 7 (replicate), Norm. Vol. relative to H2O lane = 100.0, chemiluminescence",92.1
same,E-cadherin expression relative to H2O control (= 100),"[2]; D-scan, Blot 8 (replicate), Norm. Vol. relative to H2O lane = 100.0, chemiluminescence",99.2
same,E-cadherin expression relative to H2O control (= 100),"[2]; D-scan, Blot 9 (replicate), Norm. Vol. relative to H2O lane = 100.0, chemiluminescence",67.6
same,E-cadherin expression relative to H2O control (= 100),"[2]; D-scan, Blot 10 (replicate), Norm. Vol. relative to H2O lane = 100.0, chemiluminescence",83.3
same,E-cadherin expression relative to H2O control (= 100),"[2]; D-scan, Blot 11 (replicate), Norm. Vol. relative to H2O lane = 100.0, chemiluminescence",74.5
same,E-cadherin expression relative to H2O control (= 100),"[2]; D-scan, Blot 12 (replicate), Norm. Vol. relative to H2O lane = 100.0, chemiluminescence",74.5
same,E-cadherin expression relative to H2O control (= 100),"[2]; H2O = 100.0, CXCL12 at 10µg/ml, mean of the replicates (row r47, unlabelled; SEM in row below)",85.8
same,E-cadherin expression relative to H2O control (= 100),"[2]; H2O = 100.0, CXCL12 at 10µg/ml, replicate 1 (row r35)",92.9
same,E-cadherin expression relative to H2O control (= 100),"[2]; H2O = 100.0, CXCL12 at 10µg/ml, replicate 2 (row r36)",90.1
same,E-cadherin expression relative to H2O control (= 100),"[2]; H2O = 100.0, CXCL12 at 10µg/ml, replicate 3 (row r37)",85.4
same,E-cadherin expression relative to H2O control (= 100),"[2]; H2O = 100.0, CXCL12 at 10µg/ml, replicate 4 (row r38)",88.3
same,Ala scan: Relative E-cadherin decrease,"[2]; H2O = 100.0, mean of the replicates (row r29, unlabelled; SEM in row below)",62.0
same,E-cadherin expression relative to H2O control (= 100),"[2]; H2O = 100.0, replicate 5 (row r39)",95.4
same,E-cadherin expression relative to H2O control (= 100),"[2]; H2O = 100.0, replicate 6 (row r40)",92.1
same,E-cadherin expression relative to H2O control (= 100),"[2]; H2O = 100.0, replicate 7 (row r41)",99.2
same,E-cadherin expression relative to H2O control (= 100),"[2]; H2O = 100.0, replicate 8 (row r42)",67.6
same,E-cadherin expression relative to H2O control (= 100),"[2]; H2O = 100.0, replicate 9 (row r43)",83.3
same,E-cadherin expression relative to H2O control (= 100),"[2]; H2O = 100.0, replicate 10 (row r44)",74.5
same,E-cadherin expression relative to H2O control (= 100),"[2]; H2O = 100.0, replicate 11 (row r45)",74.5
same,"Relative E-cadherin decrease in different cell lines, Average","[2]; HCT-8 cells, average (EntF* n = 15, CXCL12 n = 4)",62.0
same,effect on E-cadherin expression in Caco-2 cells,"[3]; 1 μM EntF* or CXCL12, 24 h, n = 6",statistically significant reduction
same,"Relative E-cadherin in different cell lines, Average","[3]; CaCo-2 cells, average of n = 6",40.1
